27 compounds from patent US10278942B2 (PELOTON THERAPEUTICS, INC., priority 2015, dated 2019) can be followed below.

One test relates to 786-O-Hif-Luc cells. As to the kind of experiment: Luciferase Assay (HIF responsive elements reporter). The note with it: read-out: Mean Luciferase EC50 (nM), 786-O-Hif-Luc cells.
The target of test [1] is T1, HIF-2α HIS TAG-PASB Domain (Homo sapiens, UniProt Q99814).
T1 construct: 100 nM HIF-2α HIS TAG-PASB Domain
As to the kind of experiment: HIF-2α Scintillation Proximity Assay (SPA). Type of test: binding. An outline of the steps:
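IC50 values rest on percent inhibition, where the sample signal is scaled between high and low controls. Wells contain about 100 μL: compound dispensed as 2 μL of DMSO solution, 88 μL protein-probe mix and 10 μL of beads.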
Background: Scintillation proximity formats need no separation of bound from free tracer.

Setting [2] is: read-out: Scintillation Proximity Assay IC50.

Where two headings read alike, the source gives them in different places.

T1 sequence (Q99814 240-350 limits assumed): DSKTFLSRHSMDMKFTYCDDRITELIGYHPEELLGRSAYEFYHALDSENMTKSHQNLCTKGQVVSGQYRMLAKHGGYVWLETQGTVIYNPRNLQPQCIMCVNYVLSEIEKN
Description for 786-O-Hif-Luc cells: A pool of infected cells were then selected against 2 μg/mL of puromycin (P8833, Sigma) for 10 days followed by limited dilution to select single clones. […] Each concentration was tested in triplicate. After about 24 hours, luciferase activity was determined using ONE-Glo Luciferase Assay Reagent (E6110, Promega) following the manufacturer's recommended procedure. EC50 were calculated using Dotmatics software.

Consider `N#CCC1(COc2ccc(S(=O)(=O)C(F)(F)F)c3c2CC(F)(F)[C@H]3O)COC1` [Compound 707], for which, in the test with 786-O-Hif-Luc cells, the EC50 was in the range of 250 to 1000 nM. In test [1] (setting [2]), the IC50 was in the range of 250 to 1000 nM.
Regarding `N#Cc1c(Oc2cccc(F)c2)ccc2c1[C@@H](O)CS2(=O)=O` [Compound 422], the EC50 in the test with 786-O-Hif-Luc cells was in the range of 250 to 1000 nM. Also, the IC50 in test [1] (setting [2]) was in the range of 250 to 1000 nM.
As to `NCc1c(S(=O)(=O)C(F)F)ccc(Oc2cc(F)cc(Cl)c2)c1Br` [Compound 85], the EC50 in the test with 786-O-Hif-Luc cells was greater than 1000 nM. Also, the IC50 in test [1] (Scintillation Proximity Assay IC50 (nM)) is greater than 1000 nM.
On to `CC(C)(O)COc1ccc(S(=O)(=O)C(F)(F)F)c2c1CC(F)(F)[C@H]2O` [Compound 750], for which the EC50 with 786-O-Hif-Luc cells is 250 to 1000 nM. Further, in test [1] (setting [2]), the IC50 is 250 to 1000 nM.
Consider `C[C@@H]1Cc2c(Oc3cc(F)cc(C#N)c3)ccc(S(C)(=O)=O)c2[C@@H]1O` [Compound 301], for which, in the test on 786-O-Hif-Luc cells, the EC50 was greater than 1000 nM. Further, in test [1] (setting [2]), the IC50 is greater than 1000 nM.
For `CS(=O)(=O)c1ccc(Oc2cc(F)cc(C#N)c2)c2c1[C@H](O)[C@H](F)[C@@H]2O` [Compound 296], the EC50 in the test on 786-O-Hif-Luc cells is greater than 1000 nM. The concentration for half-maximal inhibition (IC50) in test [1] (setting [2]) is greater than 1000 nM.
Consider `CS(=O)(=O)c1ccc(Oc2cc(F)cc(C#N)c2)c2c1[C@H](O)C[C@@H]2F` [Compound 295], for which the EC50 in the test on 786-O-Hif-Luc cells is 250 to 1000 nM. Further, in test [1] (setting [2]), the IC50 fell in the range of 50 to 249 nM.
As for `O=S(=O)(c1ccc(-c2ccccc2)c2c1[C@H](O)C(F)(F)C2)C(F)(F)F` [Compound 487, (S)-2,2-difluoro-4-phenyl-7-((trifluoromethyl)sulfonyl)-2,3-dihydro-1H-inden-1-ol], the EC50 in the test with 786-O-Hif-Luc cells is greater than 1000 nM. Moreover, in test [1] (setting [2]), the IC50 fell in the range of 250 to 1000 nM.
The corresponding values for `O=S(=O)(c1ccc(OC2CCCCC2)c2c1C(O)CC2)C(F)(F)F` (stereo not drawn) [Compound 616] are 250 to 1000 nM and 50 to 249 nM.
In the case of `Cc1c(S(=O)(=O)C(F)F)ccc(Oc2cc(F)cc(Cl)c2)c1C#N` [Compound 32], the concentration giving a half-maximal response (EC50) with 786-O-Hif-Luc cells is greater than 1000 nM. For the same compound, the IC50 in test [1] (setting [2]) was less than 50 nM.
For `CC1(COc2ccc(S(=O)(=O)C(F)(F)F)c3c2CC(F)(F)C3O)COC1` (stereo not drawn) [Compound 622], the concentration for a half-maximal effect (EC50) with 786-O-Hif-Luc cells fell in the range of 250 to 1000 nM. The half-maximal inhibitory concentration (IC50) in test [1] (setting [2]) was in the range of 250 to 1000 nM.
Consider `N#Cc1cc(F)cc(Oc2ccc(S(=O)(=O)C3CCC3)c3c2CC(F)(F)[C@H]3O)c1` [Compound 209], for which the EC50 in the test on 786-O-Hif-Luc cells was greater than 1000 nM. For the same compound, in test [1] (setting [2]), the IC50 lay in the range of 250 to 1000 nM.
For `CS(=O)(=O)N[C@H]1C[C@@H](Oc2ccc(S(=O)(=O)C(F)(F)F)c3c2CC(F)(F)[C@H]3O)C1` [Compound 726], the EC50 in the test on 786-O-Hif-Luc cells is greater than 1000 nM. In addition, the IC50 in test [1] (setting [2]) was greater than 1000 nM.
On to `Cc1cc(S(=O)(=O)C(F)F)ccc1Oc1cc(F)cc(C#N)c1` [Compound 136], for which the EC50 in the test with 786-O-Hif-Luc cells was greater than 1000 nM. For the same compound, in test [1] (setting [2]), the IC50 lay in the range of 50 to 249 nM.
With `Cc1c(Oc2cc(F)cc(Cl)c2)ccc(S(=O)(=O)C(F)(F)F)c1Cl` [Compound 143], in the test with 786-O-Hif-Luc cells, the EC50 is greater than 1000 nM. The 50% inhibitory concentration (IC50) in test [1] (setting [2]) was less than 50 nM.
For the compound `N#Cc1cc(F)cc(Oc2ccc(S(=O)(=O)C(F)F)c(C#N)c2Cl)c1` [Compound 39], the EC50 in the test with 786-O-Hif-Luc cells lay within 250 to 1000 nM. Moreover, the half-inhibitory concentration (IC50) in test [1] (setting [2]) fell in the range of 50 to 249 nM.
As for `CS(=O)(=O)c1ccc(Oc2cc(F)cc(C#N)c2)c2c1[C@H](O)C(F)(F)[C@@H]2O` [Compound 312], the EC50 in the test with 786-O-Hif-Luc cells is 250 to 1000 nM. In test [1] (setting [2]), the IC50 was in the range of 50 to 249 nM.
With `O=S(=O)(c1ccc(Oc2cc(F)cc(Cl)c2)c(Br)c1/C=N/O)C(F)(F)F` [Compound 107], the half-maximal effective concentration (EC50) in the test with 786-O-Hif-Luc cells was in the range of 250 to 1000 nM. For the same compound, the IC50 in test [1] (setting [2]) was 50 to 249 nM.
Regarding `O=S(=O)(c1ccc(-c2cccnc2)c2c1[C@H](O)C(F)(F)C2)C(F)(F)F` [Compound 558], the EC50 in the test on 786-O-Hif-Luc cells is greater than 1000 nM. Also, the IC50 in test [1] (setting [2]) is greater than 1000 nM.
On to `N#Cc1cccc(Oc2ccc3c(c2C(F)F)[C@@H](O)C(F)(F)S3(=O)=O)c1` [Compound 435], for which the EC50 in the test on 786-O-Hif-Luc cells is less than 50 nM. In addition, the 50% inhibitory concentration (IC50) in test [1] (setting [2]) was less than 50 nM.
Regarding `CC(Oc1ccc(S(=O)(=O)C(F)(F)F)c2c1CC(F)(F)[C@H]2O)C1(C#N)CC1` (stereo partly drawn) [Compound 748], in the test with 786-O-Hif-Luc cells, the EC50 is 250 to 1000 nM. Besides, the IC50 in test [1] (setting [2]) is 250 to 1000 nM.
Take `O[C@H]1c2c(C(F)(F)F)ccc(OCC(F)F)c2[C@@H](F)C1(F)F` [Compound 699]: the EC50 in the test with 786-O-Hif-Luc cells lay in the range of 50 to 249 nM. The half-inhibitory concentration (IC50) in test [1] (setting [2]) is less than 50 nM.
On to `NC(=O)Cc1ccc(S(=O)(=O)C(F)(F)F)c2c1CCC2O` (stereo not drawn) [Compound 523, 2-[1-hydroxy-7-(trifluoromethylsulfonyl)indan-4-yl]acetamide], for which the EC50 in the test with 786-O-Hif-Luc cells was in the range of 50 to 249 nM. Also, the IC50 in test [1] (setting [2]) is 250 to 1000 nM.
For the compound `CS(=O)(=O)c1ccc(OC2CC(F)(F)C2)c2c1[C@H](O)[C@H](F)C2` [Compound 585], in the test with 786-O-Hif-Luc cells, the 50% effective concentration (EC50) was 250 to 1000 nM. Further, the IC50 in test [1] (setting [2]) was less than 50 nM.
The corresponding values for `N#Cc1cc(F)cc(-c2ccc(S(=O)(=O)C(F)(F)F)c3c2CC(F)(F)[C@H]3O)c1` [Compound 486, (S)-3-(2,2-difluoro-1-hydroxy-7((trifluoromethyl)sulfonyl)-2,3-dihydro-1H-inden-4-yl)-5-fluorobenzonitrile] are 50 to 249 nM and less than 50 nM.
On to `CCC(COC)Oc1ccc(S(=O)(=O)C(F)(F)F)c2c1CC(F)(F)C2O` (stereo not drawn) [Compound 747], for which the EC50 in the test on 786-O-Hif-Luc cells fell in the range of 250 to 1000 nM. The IC50 in test [1] (setting [2]) fell in the range of 50 to 249 nM.
On to `O=S(=O)(c1ccc(OCC2CC2)c2c1C(O)C(F)(F)C2)C(F)(F)F` (stereo not drawn) [Compound 598], for which the EC50 with 786-O-Hif-Luc cells is 50 to 249 nM. Also, the IC50 in test [1] (setting [2]) is 50 to 249 nM.

In general, EC50 refers to the midpoint of the concentration-response curve. Broadly, the IC50 is the concentration at which inhibition is half-maximal.
